The numbers were not newly measured in patent publication US20180235982A1, “Treatment for Spirochete borne illness” (priority 2017, published 2018), which cites them from elsewhere.

SMILES strings stand for the structures.

The conditions of this data set: no species, matrix or method given.

In general, half-life refers to the time in which the quantity being followed falls by half. As for `CN(C)c1ccc(O)c2c1C[C@H]1C[C@H]3[C@H](N(C)C)C(O)=C(C(N)=O)C(=O)[C@@]3(O)C(O)=C1C2=O` [Minocycline], the half-life was 12 to 14 h.
